{"source": "patent US12187717B2", "about": "“Compound and use thereof in treating autoimmune diseases” (PARENCHYMA BIOTECH INC., priority 2022, dated 2025)", "key": {"CYP1A1": {"test_system": "CYP1A1", "assay": "Induction of CYP1A1 protein expression in HepG2 (7-ethoxyresorufin/resorufin)", "type": "cell-based, Human", "conditions": "HepG2, 1 μM, 24 hours, vs control (vehicle)", "experimental": "After recovering HepG2 under culture in DMEM-fetal bovine serum (FBS) 10% medium and then confirming that the survival rate is 97% or more through trypan blue staining, the recovered product was centrifuged at a speed of 1200 rpm for 5 minutes at room temperature, and the cells were prepared by resuspending them in DMEM-fetal calf serum 10% medium at 1.5×10^5 cells/ml.\nThereafter, the cells were dispensed onto a 96-well plate by 200 μl, and each plate was treated with 3 μl of Compounds 6, 21, 32 and 39 at a concentration of 1 μM diluted in DMEM medium, and then cultured in a cell incubator (5% CO2 incubator) for 24 hours. As a control, 3 μl of 0.05% dimethylsulfoxide (DMSO)/DMEM medium was used for treatment.\nAfter 24 hours, the medium of the plate was discarded, washed with dPBS, treated with 100 μl of 2 μM 7-ethoxyresorufin, and cultured in a cell incubator (5% CO2 incubator) for 30 minutes. After 30 minutes, each 75 μl of fluorescamine (150 μg/ml) was treated, then resorufine excitation was measured at 535 nm and emission at 590 nm. The standard curve was measured and used with 0 to 50 pmol of resorufin solution.\nAfter measurement, all solutions were removed, followed by treating the same with 25 μl of 0.5 M sodium hydroxide (NaOH), the cells were scraped and reacted in a shaker at room temperature for 15 minutes.\nAfter 15 minutes, protein was quantified using a Bradford method, and a value was obtained using a calculation formula (sample resorufin amount/sample protein amount), and then one (1) fold was set using the control."}, "IL-6": {"test_system": "IL-6", "assay": "IL-6 production of A549 epithelial cells by IL-1β stimulation", "type": "cell-based, Human", "conditions": "A549, 5 μM, 48 hours then IL-1β 24 hours, vs control", "experimental": "In order to assess the inhibitory effects of production of IL-6 by the compounds of the present invention prepared as above, an IL-6 production test of epithelial cells by stimulation of IL-1β was performed.\nAfter recovering A549 cells under culture in DMEM-fetal bovine serum (FBS) 10% medium and confirming that the survival rate is 97% or more through trypan blue staining, the recovered product was centrifuged at a speed of 1200 rpm for 5 minutes at room temperature, and the cells were prepared by resuspending them in DMEM-10% fetal bovine serum medium at 1×10^6 cells/3 ml. Thereafter, the cells were dispensed by 3 ml onto a 60 mm plate, and each dish was treated with 50 μl of Compounds 6, 9, 21, 32 and 39 at a concentration of 5 μM diluted in DMEM medium, and then cultured in a cell incubator (5% CO2 incubator) for 48 hours. Then, the cells were treated with 50 μl of human recombinant IL-1β at a concentration of 12.5 ng/ml diluted in DMEM medium, followed by culturing the same in a cell incubator (5% CO2 incubator) for 24 hours. As a control, 50 μl of 0.05% dimethylsulfoxide (DMSO)/DMEM medium was used for treatment.\nThe cultured cells were recovered to prepare an mRNA sample. […] From the separated RNA, cDNA was synthesized by reverse transcription, and the expression of CYP1A1 was confirmed through a real-time polymerase chain reaction (PCR) using iQ SYBR-Green Supermix (Bio-rad) in a CFX96 (Bio-rad) detection system. […] Herein, one (1) fold was set using the control.\nThe real-time polymerase chain reaction was performed under the conditions of 45 cycles at an annealing temperature of 58° C., wherein the following primer sequences were used."}, "[1]": {"test_system": "DSS-induced inflammatory bowel disease", "assay": "DSS-induced inflammatory bowel disease model: colon mRNA expression (real-time PCR)", "type": "in vivo, C57BL/6 mice", "source_text": "On the 15th day of the experiment, the colon of the mouse was excised to prepare an mRNA sample. In order to extract mRNA, the colon tissue was ground with a homogenizer to acquire a homogeneous suspension. From the homogeneous suspension, mRNA was extracted by a phenol-chloroform sedimentation method using an easy-spin™ (DNA free) total RNA extraction kit (Intron biotechnology, Cat No. 17221). […] Herein, one (1) fold was set using the normal mouse colon as a control.\nThe real-time polymerase chain reaction was implemented under the conditions of 45 cycles at an annealing temperature of 58° C. and the following primer sequences were used.\nThe therapeutic effects of Compound 6 and Comparative Example 1 on inflammatory bowel disease were compared. Inflammatory bowel disease was induced in C57BL/6 mice in the same manner as in Example 4, and after oral administration of 10 mg/kg of Compound 6 and Comparative Example 1 to mice, the expression levels of IL-6 and S100a9 mRNA were confirmed in colon tissues."}, "psoriasis": {"test_system": "psoriasis", "assay": "Imiquimod-induced psoriasis model", "type": "in vivo, BALB/C mice", "conditions": "10 mg/kg oral daily, 0th to 5th days, back skin on 6th day", "experimental": "Hair on the back of female BALB/C mice (8-10 weeks old) was shaved using a shaver and shaving cream, and 62.5 mg of 5% imiquimod cream was applied daily for 6 days to the shaved skin from the next day. Vaseline cream was applied to control mice (Vehicle). In the compound 6 administration group according to an embodiment of the present invention, 10 mg/kg of the compound per mouse was completely added to an ethanol-Cremophor EL mixture (1:1, v/v) corresponding to 15% (v/v) of the administered dose, and then, was diluted in phosphate buffered saline to prepare the final ethanol:Cremophor EL:phosphate buffered saline (7.5:7.5:85, v/v/v), followed by oral administration with 200 μl of the prepared solution daily for a total of 6 times from the 0th to the 5th days of the experiment. On the 6th day of the experiment, back skin tissues of mice were obtained to perform histology and mRNA experiments."}, "CYP2C9": {"target": "CYP2C9 (Homo sapiens, UniProt P11712)", "sequence (P11712 whole entry)": "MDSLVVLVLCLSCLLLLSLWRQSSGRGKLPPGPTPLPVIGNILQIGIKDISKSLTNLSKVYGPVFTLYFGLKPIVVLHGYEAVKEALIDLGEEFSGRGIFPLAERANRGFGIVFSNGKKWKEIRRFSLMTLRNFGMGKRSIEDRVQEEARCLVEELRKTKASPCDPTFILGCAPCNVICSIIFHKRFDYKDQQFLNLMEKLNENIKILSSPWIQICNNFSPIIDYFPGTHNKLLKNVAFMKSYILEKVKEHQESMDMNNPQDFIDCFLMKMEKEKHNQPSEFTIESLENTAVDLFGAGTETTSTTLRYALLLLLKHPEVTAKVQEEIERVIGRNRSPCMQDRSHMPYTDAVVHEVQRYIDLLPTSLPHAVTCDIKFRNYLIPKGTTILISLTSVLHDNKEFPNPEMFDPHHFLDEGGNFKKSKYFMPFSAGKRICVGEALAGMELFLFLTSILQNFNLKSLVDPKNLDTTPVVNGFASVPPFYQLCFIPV", "assay": "CYP isoenzyme activity", "type": "in vitro ADME", "conditions": "10 μM"}, "CYP2C19": {"target": "CYP2C19 (Homo sapiens, UniProt P33261)", "sequence (P33261 whole entry)": "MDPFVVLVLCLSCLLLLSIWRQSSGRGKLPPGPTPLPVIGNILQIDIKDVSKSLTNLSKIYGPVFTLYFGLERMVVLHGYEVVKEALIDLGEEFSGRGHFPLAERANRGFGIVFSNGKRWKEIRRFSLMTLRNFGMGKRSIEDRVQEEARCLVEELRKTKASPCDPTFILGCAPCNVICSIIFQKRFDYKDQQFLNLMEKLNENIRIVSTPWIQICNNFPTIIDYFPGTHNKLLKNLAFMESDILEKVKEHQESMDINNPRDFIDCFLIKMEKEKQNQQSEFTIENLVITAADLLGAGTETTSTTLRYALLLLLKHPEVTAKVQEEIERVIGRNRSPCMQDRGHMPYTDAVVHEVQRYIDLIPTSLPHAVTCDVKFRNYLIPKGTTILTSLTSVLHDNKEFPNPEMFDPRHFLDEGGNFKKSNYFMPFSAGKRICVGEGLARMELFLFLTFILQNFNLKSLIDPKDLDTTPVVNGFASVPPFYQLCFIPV", "assay": "CYP isoenzyme activity", "type": "in vitro ADME", "conditions": "10 μM"}, "[2]": {"conditions": "10 mg/kg oral daily, 15th day, compared to solvent control"}, "[3]": {"conditions": "10 mg/kg oral, compared to Comparative Example 1"}}}
{"smiles": "O=C(Cc1c[nH]c2ccc(Cl)cc12)Nc1nc2ccc(N3CCOCC3)cc2s1", "note": "[Compound 6, 2-(5-chloro-1H-indol-3-yl)-N-(6-morpholinobenzo[d]thiazol-2-yl)acetamide]", "values": [{"measurement": "CYP1A1 protein expression level", "setting": "CYP1A1", "result": "significantly higher"}, {"measurement": "IL-6 production of A549 by IL-1β stimulation", "setting": "IL-6", "result": "significantly reduced"}, {"measurement": "Foxp3 expression level in colon lesions", "setting": "[1]; [2]", "result": "significantly increased"}, {"measurement": "IL-1β expression level in colon lesions", "setting": "[1]; [2]", "result": "significantly reduced"}, {"measurement": "IL-6 expression level in colon lesions", "setting": "[1]; [2]", "result": "significantly reduced"}, {"measurement": "IL-10 expression level in colon lesions", "setting": "[1]; [2]", "result": "significantly increased"}, {"measurement": "IL-17A expression level in colon lesions", "setting": "[1]; [2]", "result": "significantly reduced"}, {"measurement": "Muc2 expression level in colon lesions", "setting": "[1]; [2]", "result": "significantly increased"}, {"measurement": "Reg3b expression level in colon lesions", "setting": "[1]; [2]", "result": "significantly increased"}, {"measurement": "S100a8 expression level in colon lesions", "setting": "[1]; [2]", "result": "significantly reduced"}, {"measurement": "S100a9 expression level in colon lesions", "setting": "[1]; [2]", "result": "significantly reduced"}, {"measurement": "TNF-α expression level in colon lesions", "setting": "[1]; [2]", "result": "significantly reduced"}, {"measurement": "IL-6 mRNA expression level in colon tissues", "setting": "[1]; [3]", "result": "significantly decreased"}, {"measurement": "S100a9 mRNA expression level in colon tissues", "setting": "[1]; [3]", "result": "significantly decreased"}, {"measurement": "Foxp3 expression in skin lesions", "setting": "psoriasis", "result": "markedly increased"}, {"measurement": "IL-10 expression in skin lesions", "setting": "psoriasis", "result": "markedly increased"}, {"measurement": "IL-17a mRNA expression level in skin lesions", "setting": "psoriasis", "result": "significantly reduced"}, {"measurement": "S100a8 mRNA expression level in skin lesions", "setting": "psoriasis", "result": "significantly reduced"}, {"measurement": "epithelial thickness", "setting": "psoriasis", "result": "significantly reduced"}, {"measurement": "CYP2C9 activity", "setting": "CYP2C9", "result": "94.5 % of Control Activity"}, {"measurement": "CYP2C19 activity", "setting": "CYP2C19", "result": "93.1 % of Control Activity"}, {"measurement": "inhibition of the enzyme activity of CYP2C19", "setting": "CYP2C19", "result": "little effect"}]}
